# Like-named read-outs stand apart in the source and are kept apart here.
# Tests used:
# Plasmodium falciparum = assay: In vitro anti-malarial activity against Plasmodium falciparum, IC50 assay / [3H]-hypoxanthine incorporation assay; assay type: cell-based; settings: Erythrocyte, parasitized red blood cells, 48 hours
# [1] = Compound solubility determination (gross and equilibrium solubility; FaSSIF, FeSSIF, pH 7.4 PBS, pH 1.0 0.1N HCl, pH 4.5 sodium citrate); assay type: physicochemical; settings: thermodynamic from solid
# Experimental: Compound Solubility Determination
# An amount of 3 mg solid compound with LC-MS purity ≧95% was required. This amount was split between 3 different glass vials (1.8 ml volume each), placing 1 mg compound into each one.
# Organic solvents of HPLC grade were used. Ultra pure water (Milli-Q grade) was used. Buffers were prepared with ultra pure water and filtered using 0.45μ cameo filters. The compositions of each solvent employed in this assay are described below (part III).
# 2. Determination of Equilibrium Solubility (Assuming Chemical Stability in the Desired Solvent is not a Problem).
# For each of the three vial samples prepared as described above, in which the amount of compound was totally dissolved, the following procedure was subsequently carried out: • a) A small amount (approx. 0.1 mg) of additional solid compound was added to the vial to maintain an excess of the compound in the mixture in the form of undissolved solid. • b) The samples were magnetically stirred for 24 hr. If required, additional solid compound (0.1 mg) was added to maintain excess of it and then the samples were stirred again. • c) Then the samples were filtered (Millipore Milex filters nylon 0.2 um) and three aliquots were taken (one from each of the three vials) and analysed by LC-MS. • d) The pH of the final solution in each sample was measured with a pH-meter (WTW pH330i and a pH-electrode Sentix 41).
# 3. LC-MS Assay for Analytical Quantification
# All filtered aliquots were analysed by LC-MS. The analysis was carried out with a Luna 5 μC18 (2) column 4.6×150 mm, using a HP1100 HPLC instrument interfaced with a Waters ZMD-2000 MS spectrometer. The concentration of the final sample as prepared above was calculated from that of a reference calibration curve obtained from serial dilutions of a 2 mM solution of the compound under investigation in DMSO (Aldrich cat. ref.: 27685-5) stock solution.
# The analysis of all LC-MS data was performed with MassLynx 3.4 software. Statistical and graphic analysis of data was performed using Microsoft Excel. The concentration (uM) and solubility (ug/ml) for each compound was calculated using the peak areas from the sample and those from the calibration curve.
# A) FaSSIF is a solvent which simulates the Fasted State of the Intestinal Fluid. (FaSSIF: Fasted State Simulated Intestinal Fluid).
# B) FeSSIF is a solvent which simulates the Fed State of the Intestinal Fluid. (FeSSIF: Fed State Simulated Intestinal Fluid).
# C) Solubility at pH 7.4 was determined in phosphate buffered saline (PBS) (Fluka cat. ref: 79383)
# D) Solubility at pH 1.0 was determined in 0.1N HCl solution (Scharlau AL0744010C)
# E) Solubility at pH 4.5 was determined in sodium citrate 0.5M solution. (Aldrich 25, 127-5)
# [2] = 0.1N HCl solution, simulated gastric fluid, pH 1 (HCl), read-out: Solubility at pH 1 (HCl)
# [3] = FaSSIF (fasted state simulated intestinal fluid), fassif, read-out: Solubility in FaSSIF
# [4] = phosphate buffered saline (PBS), aqueous buffer, pH 7.4 (PBS), read-out: Solubility at pH 7.4 (PBS)
# [5] = sodium citrate 0.5M solution, aqueous buffer, pH 4.5 (Na citrate), read-out: Solubility at pH 4.5 (Na citrate)
# [6] = FeSSIF (fed state simulated intestinal fluid), fessif, read-out: Solubility in FeSSIF
Compound,IC50 (Plasmodium falciparum),"solubility at 24 h [1, 2]","solubility at 24 h [1, 3]","solubility at 24 h [1, 4]","solubility at 24 h [1, 5]","solubility at 24 h [1, 6]","solubility at 24 h ([1]; aqueous buffer, pH 4.5 (Na citrate), read-out: Solubility at pH 4.5 (Na citrate))","solubility at 24 h ([1]; aqueous buffer, pH 7.4 (PBS), read-out: Solubility at pH 7.4 (PBS))","solubility at 24 h ([1]; fassif, read-out: Solubility in FaSSIF)","solubility at 24 h ([1]; fessif, read-out: Solubility in FeSSIF)","solubility at 24 h ([1]; simulated gastric fluid, pH 1 (HCl), read-out: Solubility at pH 1 (HCl))"
"Cc1[nH]c(C)c(-c2ccc(CCc3cccc(C(F)(F)F)c3)nc2)c(=O)c1Cl [Example 44, 5-Chloro-2,6-dimethyl-6′-{2-[3-(trifluoromethyl)phenyl]ethyl}-3,3′-bipyridin-4(1H)-one]",< 0.125 µg/mL,≥ 50 µg/mL,10 to 50 µg/mL,1 to 5 µg/mL,10 to 50 µg/mL,–,–,–,–,–,–
"Cc1[nH]c(C)c(-c2ccc(CCc3ccc(C(F)(F)F)cc3)nc2)c(=O)c1Cl [Example 45, 5-Chloro-2,6-dimethyl-6′-{2-[4-(trifluoromethyl)phenyl]ethyl}-3,3′-bipyridin-4(1H)-one]",< 0.125 µg/mL,≥ 50 µg/mL,10 to 50 µg/mL,5 to 10 µg/mL,10 to 50 µg/mL,–,–,–,–,–,–
"CCCCCCCc1ccc(-c2c(C)[nH]c(C)c(Cl)c2=O)cn1.Cl [Example 48, 5-Chloro-6′-(n-heptyl)-2,6-dimethyl-3,3′-bipyridin-4(1H)-one]",< 0.125 µg/mL,≥ 50 µg/mL,10 to 50 µg/mL,1 to 5 µg/mL,≥ 50 µg/mL,–,–,–,–,–,–
"Cc1[nH]c(C)c(-c2ccc(Oc3ccc(OC(F)(F)F)cc3)nc2)c(=O)c1Cl [Example 49, 5-Chloro-2,6-dimethyl-6′-({4-[(trifluoromethyl)oxy]phenyl}oxy)-3,3′-bipyridin-4(1H)-one]",< 0.125 µg/mL,5 to 10 µg/mL,< 1 µg/mL,< 1 µg/mL,< 1 µg/mL,< 1 µg/mL,–,–,–,–,–
"CCCCCCCCCc1cnc(-c2c(C)[nH]c(C)c(Cl)c2=O)nc1 [Example 50, 3-Chloro-2,6-dimethyl-5-(5-nonyl-2-pyrimidinyl)-4(1H)-pyridinone]",< 0.125 µg/mL,–,–,–,–,–,< 1 µg/mL,< 1 µg/mL,< 1 µg/mL,1 to 5 µg/mL,5 to 10 µg/mL
"Cc1[nH]c(C)c(-c2cnc(-c3ccc(OC(F)(F)F)cc3)nc2)c(=O)c1Cl [Example 51, 3-Chloro-2,6-dimethyl-5-{2-[4-(trifluoromethyloxy)phenyl]-5-pyrimidinyl}-4(1H)-pyridinone]",< 0.125 µg/mL,1 to 5 µg/mL,1 to 5 µg/mL,< 1 µg/mL,< 1 µg/mL,5 to 10 µg/mL,–,–,–,–,–
Cc1[nH]c(C)c(-c2ccc(-c3ccc4c(c3)OCO4)nc2)c(=O)c1Br [Example 53],< 0.125 µg/mL,≥ 50 µg/mL,5 to 10 µg/mL,1 to 5 µg/mL,5 to 10 µg/mL,–,–,–,–,–,–
"Cc1[nH]c(C)c(-c2ccc(-c3cc(C(F)(F)F)ccc3F)nc2)c(=O)c1Cl [Example 56, 5-chloro-6′-[2-fluoro-5-(trifluoromethyl)phenyl]-2,6-dimethyl-3,3′-bipyridin-4(1H)-one]",< 0.125 µg/mL,≥ 50 µg/mL,1 to 5 µg/mL,< 1 µg/mL,< 1 µg/mL,10 to 50 µg/mL,–,–,–,–,–
"Cc1[nH]c(C)c(-c2ccc(-c3cc(C(F)(F)F)ccc3Cl)nc2)c(=O)c1Cl [Example 57, 5-chloro-6′-[2-chloro-5-(trifluoromethyl)phenyl]-2,6-dimethyl-3,3′-bipyridin-4(1H)-one]",< 0.125 µg/mL,≥ 50 µg/mL,5 to 10 µg/mL,< 1 µg/mL,< 1 µg/mL,10 to 50 µg/mL,–,–,–,–,–
"Cc1[nH]c(C)c(-c2ccc(-c3ccc(C(F)(F)F)cc3F)nc2)c(=O)c1Cl [Example 58, 5-chloro-6′-[2-fluoro-4-(trifluoromethyl)phenyl]-2,6-dimethyl-3,3′-bipyridin-4(1H)-one]",< 0.125 µg/mL,10 to 50 µg/mL,< 1 µg/mL,< 1 µg/mL,< 1 µg/mL,1 to 5 µg/mL,–,–,–,–,–
